# Results published in the supplement of paper PMC11451515.
# Tests used:
# Details in all cases: 48 h
# NOMO1 [1] = experiment: cell viability relative to DMSO control; higher = less cytotoxic
# In short: (§1)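 Library compounds in DMSO were pin-dosed into 1536-well plates (5 μl) holding NOMO1 or SEM (500 cells/well) or P12-Ichikawa (1000 cells/well) leukemia cells, across an 11-point threefold series of 47 μM to 0.79 nM. Each cell line had been adapted for at least four passages in each medium. CellTiter-Glo One luminescence was read after 48 h at 37°C. Viability is the per-plate percentage relative to DMSO wells, with cell-free wells as background.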
# P12-Ichikawa [2] = experiment: as above
# In short: as §1
# SEM cells [3] = experiment: as above
# In short: as §1
# NOMO1 [4] = experiment: AUC of viability dose-response curve (% viability x log10 dose units); higher = less sensitive
# In short: (§2)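 Viability of medium-adapted leukemia cells was measured by CellTiter-Glo One luminescence after 48 h at 37°C with library compounds in DMSO. Doses were 11 threefold steps from 47 μM to 0.79 nM, in 1536-well plates at 500 or 1000 cells/well. Signals were normalised per plate to DMSO and cell-free wells and fitted with a four-parameter log-logistic model on log10 dose. Area under the curve was integrated by trapezoidal rule, with curves exceeding full viability scaled and failed quality-control curves removed.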
# P12-Ichikawa [5] = experiment: as above
# In short: as §2
# SEM cells [6] = experiment: as above
# In short: as §2
# [7] = HPLM + 10% dialyzed FBS, 0.000781 µM
# [8] = HPLM + 10% dialyzed FBS, 0.00234 µM
# [9] = HPLM + 10% dialyzed FBS, 0.00702 µM
# [10] = HPLM + 10% dialyzed FBS, 0.0211 µM
# [11] = HPLM + 10% dialyzed FBS, 0.0632 µM
# [12] = HPLM + 10% dialyzed FBS, 0.19 µM
# [13] = HPLM + 10% dialyzed FBS, 0.569 µM
# [14] = HPLM + 10% dialyzed FBS, 1.71 µM
# [15] = HPLM + 10% dialyzed FBS, 5.12 µM
# [16] = HPLM + 10% dialyzed FBS, 15.4 µM
# [17] = HPLM + 10% dialyzed FBS, 46.1 µM
# [18] = RPMI 5 mM glucose + 10% FBS, 0.000781 µM
# [19] = RPMI 5 mM glucose + 10% FBS, 0.00234 µM
# [20] = RPMI 5 mM glucose + 10% FBS, 0.00702 µM
# [21] = RPMI 5 mM glucose + 10% FBS, 0.0211 µM
# [22] = RPMI 5 mM glucose + 10% FBS, 0.0632 µM
# [23] = RPMI 5 mM glucose + 10% FBS, 0.19 µM
# [24] = RPMI 5 mM glucose + 10% FBS, 0.569 µM
# [25] = RPMI 5 mM glucose + 10% FBS, 1.71 µM
# [26] = RPMI 5 mM glucose + 10% FBS, 5.12 µM
# [27] = RPMI 5 mM glucose + 10% FBS, 15.4 µM
# [28] = RPMI 5 mM glucose + 10% FBS, 46.1 µM
# [29] = RPMI 5 mM glucose + 10% dialyzed FBS, 0.000781 µM
# [30] = RPMI 5 mM glucose + 10% dialyzed FBS, 0.00234 µM
# [31] = RPMI 5 mM glucose + 10% dialyzed FBS, 0.00702 µM
# [32] = RPMI 5 mM glucose + 10% dialyzed FBS, 0.0211 µM
# [33] = RPMI 5 mM glucose + 10% dialyzed FBS, 0.0632 µM
# [34] = RPMI 5 mM glucose + 10% dialyzed FBS, 0.19 µM
# [35] = RPMI 5 mM glucose + 10% dialyzed FBS, 0.569 µM
# [36] = RPMI 5 mM glucose + 10% dialyzed FBS, 1.71 µM
# [37] = RPMI 5 mM glucose + 10% dialyzed FBS, 5.12 µM
# [38] = RPMI 5 mM glucose + 10% dialyzed FBS, 15.4 µM
# [39] = RPMI 5 mM glucose + 10% dialyzed FBS, 46.1 µM
# [40] = RPMI 5 mM glucose + 10% dialyzed FBS
smiles,measurement,setting,value
COC(=O)Nc1nc2cc(C(=O)c3ccc(F)cc3)ccc2[nH]1,cell viability,NOMO1 [1]; [7],103%
same,cell viability,NOMO1 [1]; [8],113%
same,cell viability,NOMO1 [1]; [9],102%
same,cell viability,NOMO1 [1]; [10],104%
same,cell viability,NOMO1 [1]; [11],102%
same,cell viability,NOMO1 [1]; [12],103%
same,cell viability,NOMO1 [1]; [13],84.7%
same,cell viability,NOMO1 [1]; [14],54.9%
same,cell viability,NOMO1 [1]; [15],32.9%
same,cell viability,NOMO1 [1]; [16],52.2%
same,cell viability,NOMO1 [1]; [17],40.3%
same,cell viability,NOMO1 [1]; [18],107%
same,cell viability,NOMO1 [1]; [19],98.1%
same,cell viability,NOMO1 [1]; [20],91.4%
same,cell viability,NOMO1 [1]; [21],95.3%
same,cell viability,NOMO1 [1]; [22],101%
same,cell viability,NOMO1 [1]; [23],97.5%
same,cell viability,NOMO1 [1]; [24],98.6%
same,cell viability,NOMO1 [1]; [25],83.8%
same,cell viability,NOMO1 [1]; [26],34.8%
same,cell viability,NOMO1 [1]; [27],83.8%
same,cell viability,NOMO1 [1]; [28],83.9%
same,cell viability,NOMO1 [1]; [29],99.3%
same,cell viability,NOMO1 [1]; [30],103%
same,cell viability,NOMO1 [1]; [31],94.1%
same,cell viability,NOMO1 [1]; [32],107%
same,cell viability,NOMO1 [1]; [33],89.3%
same,cell viability,NOMO1 [1]; [34],93%
same,cell viability,NOMO1 [1]; [35],90.9%
same,cell viability,NOMO1 [1]; [36],65.3%
same,cell viability,NOMO1 [1]; [37],31.9%
same,cell viability,NOMO1 [1]; [38],74.1%
same,cell viability,NOMO1 [1]; [39],72.9%
same,cell viability,P12-Ichikawa [2]; [7],106%
same,cell viability,P12-Ichikawa [2]; [8],106%
same,cell viability,P12-Ichikawa [2]; [9],100%
same,cell viability,P12-Ichikawa [2]; [10],106%
same,cell viability,P12-Ichikawa [2]; [11],101%
same,cell viability,P12-Ichikawa [2]; [12],104%
same,cell viability,P12-Ichikawa [2]; [13],78.2%
same,cell viability,P12-Ichikawa [2]; [14],42.1%
same,cell viability,P12-Ichikawa [2]; [15],23%
same,cell viability,P12-Ichikawa [2]; [16],60.6%
same,cell viability,P12-Ichikawa [2]; [17],40.8%
same,cell viability,P12-Ichikawa [2]; [18],97%
same,cell viability,P12-Ichikawa [2]; [19],99.2%
same,cell viability,P12-Ichikawa [2]; [20],101%
same,cell viability,P12-Ichikawa [2]; [21],99.1%
same,cell viability,P12-Ichikawa [2]; [22],95.2%
same,cell viability,P12-Ichikawa [2]; [23],92.7%
same,cell viability,P12-Ichikawa [2]; [24],81.8%
same,cell viability,P12-Ichikawa [2]; [25],47.2%
same,cell viability,P12-Ichikawa [2]; [26],26.6%
same,cell viability,P12-Ichikawa [2]; [27],74.2%
same,cell viability,P12-Ichikawa [2]; [28],50%
same,cell viability,P12-Ichikawa [2]; [29],95.5%
same,cell viability,P12-Ichikawa [2]; [30],94.6%
same,cell viability,P12-Ichikawa [2]; [31],92.9%
same,cell viability,P12-Ichikawa [2]; [32],96.4%
same,cell viability,P12-Ichikawa [2]; [33],103%
same,cell viability,P12-Ichikawa [2]; [34],91.1%
same,cell viability,P12-Ichikawa [2]; [35],82%
same,cell viability,P12-Ichikawa [2]; [36],49.3%
same,cell viability,P12-Ichikawa [2]; [37],33.9%
same,cell viability,P12-Ichikawa [2]; [38],73.9%
same,cell viability,P12-Ichikawa [2]; [39],76.7%
same,cell viability,SEM cells [3]; [7],103%
same,cell viability,SEM cells [3]; [8],95.4%
same,cell viability,SEM cells [3]; [9],102%
same,cell viability,SEM cells [3]; [10],91.1%
same,cell viability,SEM cells [3]; [11],98.6%
same,cell viability,SEM cells [3]; [12],97.9%
same,cell viability,SEM cells [3]; [13],51.3%
same,cell viability,SEM cells [3]; [14],40.1%
same,cell viability,SEM cells [3]; [15],33.2%
same,cell viability,SEM cells [3]; [16],26.2%
same,cell viability,SEM cells [3]; [17],47.8%
same,cell viability,SEM cells [3]; [18],95.5%
same,cell viability,SEM cells [3]; [19],105%
same,cell viability,SEM cells [3]; [20],110%
same,cell viability,SEM cells [3]; [21],100%
same,cell viability,SEM cells [3]; [22],92.8%
same,cell viability,SEM cells [3]; [23],95.4%
same,cell viability,SEM cells [3]; [24],77.6%
same,cell viability,SEM cells [3]; [25],40.4%
same,cell viability,SEM cells [3]; [26],32.7%
same,cell viability,SEM cells [3]; [27],28.2%
same,cell viability,SEM cells [3]; [28],52%
same,cell viability,SEM cells [3]; [29],83.6%
same,cell viability,SEM cells [3]; [30],98.8%
same,cell viability,SEM cells [3]; [31],103%
same,cell viability,SEM cells [3]; [32],117%
same,cell viability,SEM cells [3]; [33],115%
same,cell viability,SEM cells [3]; [34],109%
same,cell viability,SEM cells [3]; [35],79.3%
same,cell viability,SEM cells [3]; [36],52%
same,cell viability,SEM cells [3]; [37],45.8%
same,cell viability,SEM cells [3]; [38],37.7%
same,cell viability,SEM cells [3]; [39],52.1%
same,AUC of viability dose-response curve,NOMO1 [4]; HPLM + 10% dialyzed FBS,372
same,AUC of viability dose-response curve,NOMO1 [4]; RPMI 5 mM glucose + 10% FBS,426
same,AUC of viability dose-response curve,NOMO1 [4]; [40],402
same,AUC of viability dose-response curve,P12-Ichikawa [5]; HPLM + 10% dialyzed FBS,365
same,AUC of viability dose-response curve,P12-Ichikawa [5]; RPMI 5 mM glucose + 10% FBS,377
same,AUC of viability dose-response curve,P12-Ichikawa [5]; [40],388
same,AUC of viability dose-response curve,SEM cells [6]; HPLM + 10% dialyzed FBS,343
same,AUC of viability dose-response curve,SEM cells [6]; RPMI 5 mM glucose + 10% FBS,363
same,AUC of viability dose-response curve,SEM cells [6]; [40],374
